The results in this text go back to patent publication US20260055079A1, “PHTHALAZINONE COMPOUNDS AS PARP7 INHIBITORS” (AZKARRA THERAPEUTICS, INC., priority 2022, published 2026).

Read-outs that look alike come from different tables or passages of the source. A value given as a limit tells only on which side of the number the result lay.

One experiment deals with His-GST-PARP7 (Homo sapiens (Human), UniProt Q7Z3E1). Description: PARP7 biochemical assay. To be noted: read-out: PARP7 IC50.
Experiment [1] relates to NCI-H1373 (human lung adenocarcinoma) cells. Description: Cell proliferation assay (CellTiter-Glo), NCI-H1373. The format is cell-based. To be noted: Homo sapiens, NCI-H1373, 144 h, read-out: NCI-H1373 GI50.
For experiment [2], the system named is HARA (human lung squamous cell carcinoma) cells. The experiment is described as follows: Cell proliferation assay (CellTiter-Glo), HARA. The experiment is classed as cell-based. The note with it: Homo sapiens, 144 h, read-out: HARA GI50.
In experiment [3] the test system is CT26 (mouse colon adenocarcinoma) cells. The experiment is described as follows: Cell proliferation assay (CellTiter-Glo), CT26. The format is cell-based. To be noted: Mus musculus, CT26, 144 h, 6 days.
For another experiment, the target named is PARP2 (Homo sapiens (Human), UniProt Q9UGN5). Description: PARP2 biochemical assay.
Chain of PARP2 (Q9UGN5 whole entry): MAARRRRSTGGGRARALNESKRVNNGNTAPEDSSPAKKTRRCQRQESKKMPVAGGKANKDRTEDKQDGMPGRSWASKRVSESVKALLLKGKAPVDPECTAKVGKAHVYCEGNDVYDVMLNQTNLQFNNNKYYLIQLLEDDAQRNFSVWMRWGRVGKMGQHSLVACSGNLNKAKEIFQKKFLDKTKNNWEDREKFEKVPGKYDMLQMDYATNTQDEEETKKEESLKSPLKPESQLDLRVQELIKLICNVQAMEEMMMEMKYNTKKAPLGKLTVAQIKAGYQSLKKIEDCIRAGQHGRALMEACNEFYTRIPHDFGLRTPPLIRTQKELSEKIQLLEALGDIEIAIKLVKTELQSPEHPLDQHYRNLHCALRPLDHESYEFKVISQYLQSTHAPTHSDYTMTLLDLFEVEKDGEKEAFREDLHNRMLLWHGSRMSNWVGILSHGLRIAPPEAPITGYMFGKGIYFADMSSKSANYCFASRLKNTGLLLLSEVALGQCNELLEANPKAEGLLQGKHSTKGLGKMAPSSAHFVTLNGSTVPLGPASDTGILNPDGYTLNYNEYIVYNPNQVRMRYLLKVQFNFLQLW

Chain of His-GST-PARP7 (Q7Z3E1 whole entry): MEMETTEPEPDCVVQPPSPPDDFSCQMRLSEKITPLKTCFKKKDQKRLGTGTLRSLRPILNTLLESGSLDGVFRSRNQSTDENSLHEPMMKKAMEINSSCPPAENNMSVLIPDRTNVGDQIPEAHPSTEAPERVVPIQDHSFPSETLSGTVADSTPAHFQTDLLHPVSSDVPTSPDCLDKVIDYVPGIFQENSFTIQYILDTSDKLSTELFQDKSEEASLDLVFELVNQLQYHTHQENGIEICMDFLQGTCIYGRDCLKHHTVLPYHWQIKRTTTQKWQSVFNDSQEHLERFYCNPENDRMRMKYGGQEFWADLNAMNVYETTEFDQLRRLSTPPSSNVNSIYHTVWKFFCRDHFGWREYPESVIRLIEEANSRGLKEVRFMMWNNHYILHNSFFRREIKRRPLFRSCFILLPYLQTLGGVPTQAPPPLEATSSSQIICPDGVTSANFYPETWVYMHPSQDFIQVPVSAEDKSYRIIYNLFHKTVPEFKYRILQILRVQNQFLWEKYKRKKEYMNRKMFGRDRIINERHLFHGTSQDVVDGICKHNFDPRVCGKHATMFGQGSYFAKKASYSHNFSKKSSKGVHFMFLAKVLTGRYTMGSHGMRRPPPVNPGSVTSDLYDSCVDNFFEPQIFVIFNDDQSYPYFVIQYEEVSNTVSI

As for `N#Cc1ccc(N2CCN(C(=O)c3cc(Cc4n[nH]c(=O)c5ccc(S(=O)(=O)C6CCC6)cc45)ccc3F)CC2)nc1` [Example 53, 6-(4-(5-((7-(cyclobutylsulfonyl)-4-oxo-3,4-dihydrophthalazin-1-yl)methyl)-2-fluorobenzoyl)piperazin-1-yl)nicotinonitrile], the IC50 on His-GST-PARP7 is 0.1 to 0.5 µM. The GI50 in experiment [1] (6 days, CellTiter-Glo) was more than 5 µM; in experiment [2] (6 days, CellTiter-Glo), more than 5 µM; in experiment [3] it was more than 5 µM.

`N#Cc1ccc(N2CCN(C(=O)c3cc(Cc4n[nH]c(=O)c5ccc(OC6CCC6)cc45)ccc3F)CC2)nc1` [Example 14, 6-(4-(5-((7-Cyclobutoxy-4-oxo-3,4-dihydrophthalazin-1-yl)methyl)-2-fluorobenzoyl)piperazin-1-yl)nicotinonitrile]: the IC50 is less than 0.05 µM at His-GST-PARP7 and 0.5 to 2 µM against PARP2. For the same molecule, the GI50 in experiment [1] is less than 0.1 µM; in experiment [2], 1 to 5 µM.

Consider `N#Cc1ccc(N2CCN(C(=O)c3cc(Cc4n[nH]c(=O)c5ccc(OC6CCC6)cc45)ccn3)CC2)nc1` [Example 179, 6-(4-(4-((7-Cyclobutoxy-4-oxo-3,4-dihydrophthalazin-1-yl)methyl)picolinoyl)piperazin-1-yl)nicotinonitrile], for which, at His-GST-PARP7, the IC50 was less than 0.05 µM. Besides, the GI50 in experiment [1] (6 days, CellTiter-Glo) is less than 0.1 µM; in experiment [2] (6 days, CellTiter-Glo) it was more than 5 µM; in experiment [3] it was more than 5 µM.

`O=C(c1cc(Cc2n[nH]c(=O)c3ccc(OC4CCC4)cc23)ccc1F)N1CCN(c2cc(C(F)(F)F)ccn2)CC1` [Example 156, 6-cyclobutoxy-4-(4-fluoro-3-(4-(4-(trifluoromethyl)pyridin-2-yl)piperazine-1-carbonyl)benzyl)phthalazin-1(2H)-one]: the IC50 at His-GST-PARP7 was less than 0.05 µM. The GI50 in experiment [1] (6 days, CellTiter-Glo) was 0.1 to 1 µM; in experiment [2] (6 days, CellTiter-Glo), 1 to 5 µM; in experiment [3], more than 5 µM.

On to `COc1ccnc(N2CCN(C(=O)c3cc(Cc4n[nH]c(=O)c5ccc(OC6CCC6)cc45)ccc3F)CC2)c1` [Example 128, 6-cyclobutoxy-4-(4-fluoro-3-(4-(4-methoxypyridin-2-yl)piperazine-1-carbonyl)benzyl)phthalazin-1(2H)-one], for which the IC50 on His-GST-PARP7 is less than 0.05 µM. Besides, the GI50 in experiment [1] (6 days, CellTiter-Glo) is 0.1 to 1 µM; in experiment [2] (6 days, CellTiter-Glo), 1 to 5 µM; in experiment [3] it was 1 to 5 µM.

Regarding `N#Cc1ccc(N2CCN(C(=O)c3cc(Br)cc(Cc4n[nH]c(=O)c5ccc(OC6CCC6)cc45)c3)CC2)nc1` [Example 178, 6-(4-(3-Bromo-5-((7-cyclobutoxy-4-oxo-3,4-dihydrophthalazin-1-yl)methyl)benzoyl)piperazin-1-yl)nicotinonitrile], the IC50 on His-GST-PARP7 is less than 0.05 µM. Moreover, the GI50 in experiment [1] (6 days, CellTiter-Glo) is 0.1 to 1 µM; in experiment [2] (6 days, CellTiter-Glo), 1 to 5 µM; in experiment [3], more than 5 µM.

Regarding `Cc1cc(C#N)cnc1N1CCN(C(=O)c2cc(Cc3n[nH]c(=O)c4ccc(OC5CCC5)cc34)ccc2F)CC1` [Example 138, 6-(4-(5-((7-cyclobutoxy-4-oxo-3,4-dihydrophthalazin-1-yl)methyl)-2-fluorobenzoyl)piperazin-1-yl)-5-methylnicotinonitrile], the IC50 on His-GST-PARP7 was less than 0.05 µM. Besides, the GI50 in experiment [1] (6 days, CellTiter-Glo) was 0.1 to 1 µM; in experiment [2] (6 days, CellTiter-Glo), 1 to 5 µM; in experiment [3], more than 5 µM.

Regarding `C#CCOc1ccc2c(=O)[nH]nc(Cc3ccc(F)c(C(=O)N4CCN(c5ccc(C#N)cn5)CC4)c3)c2c1` [Example 3, 6-(4-(2-fluoro-5-((4-oxo-7-(prop-2-yn-1-yloxy)-3,4-dihydrophthalazin-1-yl)methyl)benzoyl)piperazin-1-yl)nicotinonitrile], the IC50 at His-GST-PARP7 and on PARP2 (read-out: PARP2 IC50) was less than 0.05 µM throughout. Moreover, the GI50 is less than 0.1 µM in experiment [1] and 1 to 5 µM in experiment [2].

Regarding `N#Cc1ccc(N2CCCN(C(=O)c3cc(Cc4n[nH]c(=O)c5ccc(OC6CCC6)cc45)ccc3F)CC2)nc1` [Example 94, 6-(4-(5-((7-Cyclobutoxy-4-oxo-3,4-dihydrophthalazin-1-yl)methyl)-2-fluorobenzoyl)-1,4-diazepan-1-yl)nicotinonitrile], at His-GST-PARP7, the IC50 was less than 0.05 µM. Moreover, the GI50 is less than 0.1 µM in experiment [1] (6 days, CellTiter-Glo); 1 to 5 µM in experiment [2] (6 days, CellTiter-Glo); 1 to 5 µM in experiment [3].

With `COc1cc2c(Cc3ccc(F)c(C(=O)N4CCN(c5ccc(C#N)cn5)CC4)c3)n[nH]c(=O)c2cn1` [Example 91, 6-(4-(2-fluoro-5-((7-methoxy-4-oxo-3,4-dihydropyrido[4,3-d]pyridazin-1-yl)methyl)benzoyl)piperazin-1-yl)nicotinonitrile], the IC50 at His-GST-PARP7 is less than 0.05 µM. Moreover, the GI50 is 1 to 5 µM in experiment [1] (6 days, CellTiter-Glo); more than 5 µM in experiment [2] (6 days, CellTiter-Glo); more than 5 µM in experiment [3].

Regarding `O=C(c1cc(Cc2n[nH]c(=O)c3ccc(OC4CCC4)cc23)ccc1F)N1CCN(c2ncc(C(F)F)cn2)CC1` [Example 157, 6-Cyclobutoxy-4-(3-(4-(5-(difluoromethyl)pyrimidin-2-yl)piperazine-1-carbonyl)-4-fluorobenzyl)phthalazin-1(2H)-one], at His-GST-PARP7, the IC50 is less than 0.05 µM. Further, the GI50 in experiment [1] (6 days, CellTiter-Glo) was less than 0.1 µM; in experiment [2] (6 days, CellTiter-Glo) it was 1 to 5 µM; in experiment [3] it was 1 to 5 µM.

Consider `N#Cc1ccc(N2CCN(C(=O)c3cc(Cc4n[nH]c(=O)c5c(C(F)(F)F)cc(OC6CCC6)cc45)ccc3F)CC2)nc1` [Example 93, 6-(4-(5-((7-Cyclobutoxy-4-oxo-5-(trifluoromethyl)-3,4-dihydrophthalazin-1-yl)methyl)-2-fluorobenzoyl)piperazin-1-yl)nicotinonitrile], for which, on His-GST-PARP7, the IC50 is less than 0.05 µM. Besides, the GI50 in experiment [1] (6 days, CellTiter-Glo) is less than 0.1 µM; in experiment [2] (6 days, CellTiter-Glo), 1 to 5 µM; in experiment [3] it was 1 to 5 µM.

For `N#Cc1ccc(N2CCN(C(=O)c3ccnc(Cc4n[nH]c(=O)c5ccc(OC6CCC6)cc45)c3)CC2)nc1` [Example 180, 6-(4-(2-((7-Cyclobutoxy-4-oxo-3,4-dihydrophthalazin-1-yl)methyl)isonicotinoyl)piperazin-1-yl)nicotinonitrile], the IC50 at His-GST-PARP7 was less than 0.05 µM. Moreover, the GI50 was less than 0.1 µM in experiment [1] (6 days, CellTiter-Glo); more than 5 µM in experiment [2] (6 days, CellTiter-Glo); 1 to 5 µM in experiment [3].

In the case of `O=C(c1cc(Cc2n[nH]c(=O)c3ccc(OC4CCC4)cc23)ccc1F)N1CCN(c2ccc(C(F)(F)F)nc2)CC1` [Example 159, 6-Cyclobutoxy-4-(4-fluoro-3-(4-(6-(trifluoromethyl)pyridin-3-yl)piperazine-1-carbonyl)benzyl)phthalazin-1(2H)-one], the IC50 at His-GST-PARP7 was less than 0.05 µM. For the same molecule, the GI50 in experiment [1] (6 days, CellTiter-Glo) is 0.1 to 1 µM; in experiment [2] (6 days, CellTiter-Glo), more than 5 µM; in experiment [3], more than 5 µM.

Turning to `N#Cc1ccc(N2CCN(C(=O)c3cc(Cc4n[nH]c(=O)c5ccc(OC6CC(F)(F)C6)cc45)ccc3F)CC2)nc1` [Example 51, 6-(4-(5-((7-(3,3-Difluorocyclobutoxy)-4-oxo-3,4-dihydrophthalazin-1-yl)methyl)-2-fluorobenzoyl)piperazin-1-yl)nicotinonitrile], the IC50 at His-GST-PARP7 was less than 0.05 µM. Further, the GI50 is less than 0.1 µM in experiment [1] (6 days, CellTiter-Glo); more than 5 µM in experiment [2] (6 days, CellTiter-Glo); 1 to 5 µM in experiment [3].

As for `CC(F)(F)c1ccc2c(=O)[nH]nc(Cc3ccc(F)c(C(=O)N4CCN(c5ccc(C#N)cn5)CC4)c3)c2c1` [Example 36, 6-(4-(5-((7-(1,1-Difluoroethyl)-4-oxo-3,4-dihydrophthalazin-1-yl)methyl)-2-fluorobenzoyl)piperazin-1-yl)nicotinonitrile], the IC50 was 0.05 to 0.1 µM at His-GST-PARP7 and less than 0.05 µM at PARP2 (read-out: PARP2 IC50). Further, the GI50 in experiment [1] (6 days, CellTiter-Glo) was in the range of 0.1 to 1 µM.
